# Results taken from PubChem BioAssay AID328 (DTP/NCI, 2004).
# “And” between values parts separate entries of the source, which are not always exact repeats. Equal values may be shown once. Inconclusive results and toxic doses are left out.
# Test system: BDF1 mice, P388 leukemia ip, median survival T/C
# Test: NCI In Vivo Anticancer Drug Screen. Data for tumor model P388 Leukemia (intraperitoneal) in B6D2F1 (BDF1) mice
# Conditions: endpoint: median survival time, higher = longer survival
# Summary of the method: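 Survival ratio, drug arm over vehicle arm, in mice with a transplanted tumour.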
# [1] = dose: 50.0 mg/kg/injection, schedule: Q04DX003 (ip), vehicle: saline with Tween-80
# [2] = dose: 50.0 mg/kg/injection, schedule: Q04DX003 (ip), vehicle: Klucel (hydroxypropylcellulose) (HPC)
# [3] = dose: 100.0 mg/kg/injection, schedule: Q04DX003 (ip), vehicle: Klucel (hydroxypropylcellulose) (HPC)
# [4] = dose: 200.0 mg/kg/injection, schedule: Q04DX003 (ip), vehicle: Klucel (hydroxypropylcellulose) (HPC)
# [5] = dose: 100.0 mg/kg/injection, schedule: Q01DX009 (ip), vehicle: saline with Tween-80
# [6] = dose: 100.0 mg/kg/injection, schedule: Q04DX003 (ip), vehicle: saline with Tween-80
# [7] = dose: 200.0 mg/kg/injection, schedule: Q01DX009 (ip), vehicle: saline with Tween-80
# [8] = dose: 200.0 mg/kg/injection, schedule: Q04DX003 (ip), vehicle: saline with Tween-80
# [9] = dose: 400.0 mg/kg/injection, schedule: Q04DX003 (ip), vehicle: saline with Tween-80
# [10] = dose: 50.0 mg/kg/injection, schedule: Q01DX009 (ip), vehicle: saline with Tween-80
smiles,measurement,setting,value
COc1cc(OC)c(OC)cc1/C=C\c1ccnc2ccccc12,T/C,"dose: 133.0 mg/kg/injection, schedule: Q01DX010 (ip), vehicle: saline",120 % of control
same,T/C,"dose: 200.0 mg/kg/injection, schedule: Q01DX009 (ip), vehicle: carboxymethylcellulose (CMC)",116 % of control
same,T/C,"dose: 200.0 mg/kg/injection, schedule: Q01DX010 (ip), vehicle: saline",120 % of control
same,T/C,"dose: 400.0 mg/kg/injection, schedule: Q01DX009 (ip), vehicle: carboxymethylcellulose (CMC)",166 % of control
same,T/C,"dose: 450.0 mg/kg/injection, schedule: Q01DX010 (ip), vehicle: saline",120 % of control
O=NN(CCCl)C(=O)N[C@H]1CCCC[C@@H]1Cl,T/C,"dose: 33.0 mg/kg/injection, schedule: Q04DX003 (ip), vehicle: saline with Tween-80",272 % of control
same,T/C,[1],272 % of control
same,T/C,"dose: 75.0 mg/kg/injection, schedule: Q04DX003 (ip), vehicle: saline with Tween-80",213 % of control
COC(=O)/C(=N\NS(=O)(=O)c1ccc(C)cc1)c1ccccc1,T/C,"dose: 25.0 mg/kg/injection, schedule: Q04DX003 (ip), vehicle: Klucel (hydroxypropylcellulose) (HPC)",98 % of control
same,T/C,[2],100 % of control
same,T/C,[3],94 % of control
same,T/C,[4],93 % of control
O=[Se](=O)(c1ccccc1)c1ccccc1,T/C,"dose: 100.0 mg/kg/injection, schedule: Q04DX002 (ip), vehicle: saline with Tween-80",97 % of control
same,T/C,"dose: 200.0 mg/kg/injection, schedule: Q04DX002 (ip), vehicle: saline with Tween-80",103 % of control
same,T/C,"dose: 400.0 mg/kg/injection, schedule: Q04DX002 (ip), vehicle: saline with Tween-80",94 % of control
C/C=C1\CN2CCc3c([nH]c4ccccc34)C2CC1Cc1nccc2c1[nH]c1ccccc12 (stereo unspecified),T/C,"dose: 1.0 mg/kg/injection, schedule: Q04DX003 (ip), vehicle: saline",98 % of control
same,T/C,"dose: 2.0 mg/kg/injection, schedule: Q04DX003 (ip), vehicle: saline",102 % of control
same,T/C,"dose: 4.0 mg/kg/injection, schedule: Q04DX003 (ip), vehicle: saline",102 % of control
same,T/C,"dose: 6.0 mg/kg/injection, schedule: Q04DX003 (ip), vehicle: saline",107 % of control
same,T/C,"dose: 12.0 mg/kg/injection, schedule: Q04DX003 (ip), vehicle: saline",103 % of control
same,T/C,"dose: 24.0 mg/kg/injection, schedule: Q04DX003 (ip), vehicle: saline",100 % of control
same,T/C,"dose: 48.0 mg/kg/injection, schedule: Q04DX003 (ip), vehicle: saline",100 % of control
O=[N+]([O-])c1cc2no[n+]([O-])c2cc1N1CCOCC1,T/C,"dose: 30.0 mg/kg/injection, schedule: Q01DX009 (ip), vehicle: saline with Tween-80",108 % of control
C[C@@H]1CN(C(=O)CCOS(C)(=O)=O)[C@@H](C)CN1C(=O)CCOS(C)(=O)=O,T/C,[1],166 % of control
same,T/C,[5],272 % of control
same,T/C,[6],208 % of control
same,T/C,[7],104 % of control
same,T/C,[8],172 % of control
same,T/C,"dose: 264.0 mg/kg/injection, schedule: Q04DX003 (ip), vehicle: saline with Tween-80",233 % of control
same,T/C,[9],250 % of control and 272 % of control
NC(CSC(c1ccccc1)(c1ccccc1)c1ccc(Br)cc1)C(=O)O (stereo unspecified),T/C,"dose: 5.0 mg/kg/injection, schedule: Q04DX003 (ip), vehicle: Klucel (hydroxypropylcellulose) (HPC)",118 % of control
same,T/C,"dose: 6.25 mg/kg/injection, schedule: Q01DX009 (ip), vehicle: saline with Tween-80",190 % of control
same,T/C,"dose: 12.5 mg/kg/injection, schedule: Q01DX009 (ip), vehicle: saline with Tween-80",245 % of control
same,T/C,"dose: 25.0 mg/kg/injection, schedule: Q01DX009 (ip), vehicle: saline with Tween-80",270 % of control
same,T/C,"dose: 25.0 mg/kg/injection, schedule: Q04DX003 (ip), vehicle: saline",165 % of control
same,T/C,"dose: 30.0 mg/kg/injection, schedule: Q04DX003 (ip), vehicle: Klucel (hydroxypropylcellulose) (HPC)",154 % of control
same,T/C,"dose: 45.0 mg/kg/injection, schedule: Q04DX003 (ip), vehicle: other",166 % of control
same,T/C,[1],176 % of control
same,T/C,"dose: 50.0 mg/kg/injection, schedule: Q04DX003 (ip), vehicle: saline",204 % of control and 210 % of control
same,T/C,"dose: 65.0 mg/kg/injection, schedule: Q04DX003 (ip), vehicle: other",183 % of control
same,T/C,[5],100 % of control
same,T/C,"dose: 100.0 mg/kg/injection, schedule: Q04DX003 (ip), vehicle: other",170 % of control
same,T/C,[6],185 % of control
same,T/C,"dose: 100.0 mg/kg/injection, schedule: Q04DX003 (ip), vehicle: saline",230 % of control
same,T/C,"dose: 150.0 mg/kg/injection, schedule: Q04DX003 (ip), vehicle: other",250 % of control
same,T/C,[8],100 % of control
CC1CC(C)(C)[N+](C)=C(CC(O)(c2ccccc2)c2ccccc2)O1 (stereo unspecified),T/C,"dose: 6.25 mg/kg/injection, schedule: Q04DX003 (ip), vehicle: saline sonified",109 % of control
same,T/C,"dose: 12.5 mg/kg/injection, schedule: Q04DX003 (ip), vehicle: saline sonified",90 % of control
same,T/C,"dose: 25.0 mg/kg/injection, schedule: Q04DX003 (ip), vehicle: saline sonified",90 % of control
O=c1oc2ccccc2n1Cc1ccc(Cl)cc1,T/C,"dose: 25.0 mg/kg/injection, schedule: Q01DX005 (ip), vehicle: saline with Tween-80",92 % of control
same,T/C,"dose: 50.0 mg/kg/injection, schedule: Q01DX005 (ip), vehicle: saline with Tween-80",99 % of control
same,T/C,"dose: 200.0 mg/kg/injection, schedule: Q01DX005 (ip), vehicle: saline with Tween-80",94 % of control
CN(N=O)C(N)=O,T/C,"dose: 25.0 mg/kg/injection, schedule: Q04DX003 (ip), vehicle: saline with Tween-80",150 % of control
same,T/C,"dose: 37.5 mg/kg/injection, schedule: Q04DX003 (ip), vehicle: saline with Tween-80",154 % of control
CCCCCSC(=S)N(C)NC(=O)c1ccccn1,T/C,[10],103 % of control
same,T/C,[5],101 % of control
same,T/C,[7],100 % of control
C=CCNC(=S)Nc1ccc(C)cc1,T/C,[2],112 % of control
same,T/C,[3],104 % of control
same,T/C,[4],91 % of control
CC(=O)N(C(C)=O)c1ccc(N=Nc2ccccc2C)cc1C,T/C,[10],90 % of control
same,T/C,[5],90 % of control
same,T/C,[6],95 % of control
same,T/C,[7],86 % of control
same,T/C,[8],100 % of control
same,T/C,[9],100 % of control
